“Also recorded” adds a separate entry of the source.
Tests used:
MCF-7 cells [1] = test: Cell cycle analysis by flow cytometry (PI staining); format: cell-based, human; conditions: MCF-7 treated at IC50 concentration; for percentage of cells in pre-G1 phase (%Pre-G1) / percentage of cells in G2/M phase (%G2/M) / percentage of cells in S phase (%S) / percentage of cells in G0/G1 phase (%G0-G1): 24 h; for percentage of cells in pre-G1 phase (%Pre-G1): untreated control 1.85%; for percentage of cells in G2/M phase (%G2/M): untreated control 11.84%; for percentage of cells in S phase (%S): untreated control 29.95%; for percentage of cells in G0/G1 phase (%G0-G1): untreated control 58.21%
Experimental: For further investigation of the promising antiproliferative activity of compounds 11, 12, 13 and 27 on breast cancer MCF-7 cell line, cell cycle analysis was carried out using flow cytometric assay. […] The flow cytometric assay results were compared to the negative control untreated MCF-7 cell line.
MCF-7 cells were seeded in 24-well plate at a density of 2 × 10^5 cells/well, treated with the test compounds 11, 12, 13 and 27 at different concentrations and incubated at 37 °C for 24 h in 5% CO2 atmosphere. The cells were washed with ice-cold phosphate buffer saline (PBS) twice and fixed in 70% ice-cold ethanol overnight and then suspended in (PBS) containing PI (DNA staining solution) at concentration of 50 µg/mL, 0.1 mg/mL RNAase A (Sigma, USA) and 0.05% Triton X-100. Cells were analysed by flow cytometry after 30 min at 37 n the dark using FACSCalibur (Becton Dickinson FACS, San Jose, CA) flow cytometer. The cell cycle distributions were measured using Cell-Quest software.
Suppl. S3. Cell cycle analysis for compounds 11, 12, 13 and 27 […]
Assay : Cell Cycle Analysis
Kit used : ab139418_Propidium Iodide Flow Cytometry Kit/BD
Assay samples : Cell culture
Table S3. Cell cycle phase distribution in MCF-7 cell line treated with vehicle control and the newly synthesised compounds; 11, 12, 13 and 27. […]

MDA-MB-231 = test: In vitro cytotoxicity screening, MTT assay; conditions: Homo sapiens, MDA-MB-231, 24 h, read-out: In vitro Cytotoxicity (IC50, µM) MDA-MB-231
Source text: Two human breast cancer cell lines, namely, MDA-MB-231 and MCF-7 were obtained from American Type Culture Collection (ATCC) via a holding company for biological products and vaccines (VACSERA), Cairo, Egypt. […] The reagents used were RPMI-1640 medium, MTT, DMSO (sigma co., St. Louis, USA), and Fetal bovine serum (GIBCO, UK). […] MTT is a colorimetric assay based on the conversion of the yellow tetrazolium bromide (MTT) to a purple formazan derivative by mitochondrial succinate dehydrogenase in viable cells. Cell lines were cultured in RPMI-1640 medium with 10% foetal bovine serum. Antibiotics added were 100 units/ml penicillin and 100 µg/ml streptomycin maintained at 37 °C in a 5% CO2 incubator. The cell lines were seeded at a density of approximately 1.0 × 10 ^4 cells/well in a 96-well plate at 37 °C for 48 h under 5% CO2. Different concentrations of compounds were added and incubated for 24 h. After 24 h of drug treatment, 20 µl of MTT staining solution at 5 mg/ml was added to each well and incubated for 4 h at 37 °C. After 4 h, 100 µl of dimethyl sulfoxide (DMSO) were added into each well to dissolve the purple formazan crystals formed. The absorbance was recorded at 570 nm using a plate reader (EXL 800, USA). The relative cell viability in percentage was calculated as (A570 of treated samples/A570 of untreated sample) X 100 [22],[23].

PARP-2 enzyme = target: T1, PARP-2 enzyme (Homo sapiens, UniProt Q9UGN5); test: Poly (ADP-ribose) polymerase 2 (PARP-2) inhibition assay (colorimetric kit); format: biochemical; conditions: for IC50: in vitro enzyme assay
T1 construct: purchased BPS Bioscience 80,581
T1 sequence (Q9UGN5 whole entry): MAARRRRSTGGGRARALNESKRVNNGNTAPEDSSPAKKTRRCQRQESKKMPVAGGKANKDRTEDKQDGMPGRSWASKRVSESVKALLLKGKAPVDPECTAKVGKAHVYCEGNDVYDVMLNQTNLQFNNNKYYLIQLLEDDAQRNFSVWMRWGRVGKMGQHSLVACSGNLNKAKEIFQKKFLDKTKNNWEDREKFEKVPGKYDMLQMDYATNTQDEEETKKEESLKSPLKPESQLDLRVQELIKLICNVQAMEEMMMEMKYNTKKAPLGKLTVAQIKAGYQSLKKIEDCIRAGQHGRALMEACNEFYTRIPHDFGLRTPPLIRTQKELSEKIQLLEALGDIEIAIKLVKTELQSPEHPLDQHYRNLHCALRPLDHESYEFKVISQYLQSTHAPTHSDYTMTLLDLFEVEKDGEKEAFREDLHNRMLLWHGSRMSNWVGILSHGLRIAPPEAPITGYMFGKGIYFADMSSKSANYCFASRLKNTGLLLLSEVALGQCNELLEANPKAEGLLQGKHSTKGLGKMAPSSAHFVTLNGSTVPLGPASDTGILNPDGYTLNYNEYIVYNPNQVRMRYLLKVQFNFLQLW
Experimental: Results were expressed as IC50 values (Table 2).
The PARP-2 inhibitory activity of the test compounds was assayed using PARP-2 Colorimetric Activity Assay Kit (BPS Bioscience, catalog 80,581, San Diego, CA, USA) following the manufacturer’s protocol. Briefly, histone protein mixture was coated on a 96-well microtiter plate and incubated at 4 °C overnight, washed with phosphate-buffered saline with tween-20 (PBST) three times then, the wells were blocked by adding blocking buffer 3 and incubated at room temperature for 60–90 min. After that, the plate was washed with PBST buffer three times. The master mixture which contains the PARP buffer, PARP assay mixture, activated DNA and distilled water was added to each well then, the inhibitor solution (test compound) was added. The reaction was initiated by adding PARP-2 enzyme to the wells and the plate was incubated for 1 h at room temperature. After 1 h, the reaction mixture was discarded, and the plate was washed with PBST buffer three times. Finally, the plate was treated with Streptavidin–Horseradish Peroxidase (HRP) and incubated for 30 min at room temperature and then washed with PBST buffer. The colorimetric HRP substrate was added to each well and incubated at room temperature until the positive control well developed blue color. Sulphuric acid was added to each well after the blue color development. The absorbance was read at 450 nm using UV/Vis spectrophotometer microplate reader.
Suppl. S2. In vitro PARP-2 enzyme inhibition assay
Researcher : Dr. Nadeen Ghobashy email:elghobashynadeen@gmail.com mob.01008873340
Reader : ROBONIK P2000 Eliza Reader wl 450 nm

MCF-7 cells [2] = test: Annexin V-FITC/PI double staining flow cytometry, apoptosis and necrosis; format: cell-based, human; conditions: MCF-7 treated at IC50 concentration, 24 h; for % Late apoptosis: untreated control 0.33%; for % Early apoptosis: untreated control 0.37%; for % Necrosis: untreated control 1.15%; for % Total apoptosis: untreated control 1.85%
Source text: Apoptosis, which is a programmed cell death, is considered as an important way to express cell death among anticancer agents. Most of the anticancer agents can induce apoptosis in cancerous cells. To examine whether the potent cytotoxic effect of 11, 12, 13 and 27 was attributed to apoptosis or necrosis, annexin V-FITC propidium iodide (PI) double staining flow cytometry assay was applied. […] The cells were then stained with annexin V-FITC propidium iodide (PI) and the percentage of apoptotic cells was determined by flow cytometry. […] Compounds 11, 12, 13 and 27 induced necrotic effect 5.74%, 7.23%, 6.39% and 2.07%, respectively in comparison to the untreated negative control MCF-7 cells (1.15%).
Cell death by apoptosis was detected by flow cytometric method using Annexin-V/FITC propidium iodide Apoptosis Detection Kit Catalog #: K101-25; Biovision, USA). MCF-7 cells were seeded at a density of 2 × 10 ^5 cells/well in 24-well plate, treated with the test compounds 11, 12, 13 and 27 at different concentrations and incubated at 37 °C for 24 h in 5% CO2 atmosphere. Cells were collected and suspended in 500 µl binding buffer and then 5 µl of Annexin V-FITC and 5 µl of PI were added and mixed. The mixture was incubated for 5 min in the dark at room temperature. Cell apoptosis analyses were performed using FACSCalibur (Becton Dickinson FACS, San Jose, CA) flow cytometer.

Row | %inh of PARP-2 (Table S2 raw data) (PARP-2 enzyme; conc 0.01 (ng/ml)) [%] | %inh of PARP-2 (Table S2 raw data) (PARP-2 enzyme; conc 0.1 (ng/ml)) [%] | %inh of PARP-2 (Table S2 raw data) (PARP-2 enzyme; conc 1 (ng/ml)) [%] | %inh of PARP-2 (Table S2 raw data) (PARP-2 enzyme; conc 10 (ng/ml)) [%] | IC50 (PARP-2 enzyme) [µM] | Compound | percentage of cells in pre-G1 phase (%Pre-G1) (MCF-7 cells [1]) [%] | percentage of cells in G2/M phase (%G2/M) (MCF-7 cells [1]) [%] | percentage of cells in S phase (%S) (MCF-7 cells [1]) [%] | percentage of cells in G0/G1 phase (%G0-G1) (MCF-7 cells [1]) [%] | IC50 (MDA-MB-231) [µM] | % Late apoptosis (MCF-7 cells [2]) [%] | % Early apoptosis (MCF-7 cells [2]) [%] | % Necrosis (MCF-7 cells [2]) [%] | % Total apoptosis (MCF-7 cells [2]) [%] | cell cycle arrest phase (MCF-7 cells [1])
1 | 37.25 | 52.67 | 73.48 | 88.84 | 0.057 ± 0.003 | CCN(CC)CCC(=O)Nc1ccc(-c2nc3cc(Cl)ccc3o2)cc1 [Compound 27, N-(4-(5-chlorobenzoxazol-2-yl)phenyl)-3-(diethylamino)propanamide] | 25.91 | 4.46 | 33.16 | 62.38 | 11.3 ± 0.9 | 4.58 | 19.26 | 2.07 | 25.91 | 
2 | 28.75 | 43.61 | 58.88 | 84.97 | 0.19 ± 0.01 | O=C(CCN1CCCCC1)Nc1ccc(-c2nc3cc(Cl)ccc3o2)cc1 [Compound 11, N-(4-(5-chlorobenzoxazol-2-yl)phenyl)-3-(piperidin-1-yl)propanamide] | 45.07 | 7.22 | 24.76 | 68.02 | 5.63 ± 0.3 | 23.02 | 16.31 | 5.74 | 45.07 | cell growth arrest@ G1; also recorded: cell cycle arrest at G0/G1 phase
3 | 30.58 | 46.82 | 71.31 | 88.69 | 0.106 ± 0.006 | CN1CCN(CCC(=O)Nc2ccc(-c3nc4cc(Cl)ccc4o3)cc2)CC1 [Compound 13, N-(4-(5-chlorobenzoxazol-2-yl)phenyl)-3-(4-methylpiperazin-1-yl)propanamide] | 29.66 | 26.51 | 28.51 | 44.98 | 7.52 ± 0.6 | 10.99 | 12.28 | 6.39 | 29.66 | cell growth arrest@ G2/M; also recorded: cell cycle arrest at G2/M phase
4 | 35.69 | 53.11 | 67.93 | 90.18 | 0.07 ± 0.004 | O=C(CCN1CCOCC1)Nc1ccc(-c2nc3cc(Cl)ccc3o2)cc1 [Compound 12, N-(4-(5-chlorobenzoxazol-2-yl)phenyl)-3-morpholinopropanamide] | 33.47 | 32.04 | 26.18 | 41.78 | 6.14 ± 0.5 | 3.72 | 22.52 | 7.23 | 33.47 | 
